According to the supplement of paper PMC10307832:

How the values were obtained:
Test in all cases: relative viability (nuclei count vs DMSO), 5 days (fraction); higher = more cells survive
Salubrinal + Dasatinib = compound: O=C(/C=C/c1ccccc1)NC(NC(=S)Nc1cccc2cccnc12)C(Cl)(Cl)Cl [Salubrinal] + Cc1nc(Nc2ncc(C(=O)Nc3c(C)cccc3Cl)s2)cc(N2CCN(CCO)CC2)n1 [Dasatinib] (partner 0.075 µM)
Outline: (§1)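 Lung cancer cell lines were pin-tool dosed in 1536-well plates on the day after seeding, with either a lone drug or a fixed anchor-drug dose plus five library-drug doses (not always all listed) in √10 steps. Nuclei were counted on 4× images after 5 days. Relative viability is the ratio of treated-well to vehicle-well nuclei counts, with each value a median of duplicate plates.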

Salubrinal + Olaparib = compound: O=C(/C=C/c1ccccc1)NC(NC(=S)Nc1cccc2cccnc12)C(Cl)(Cl)Cl [Salubrinal] + O=C(c1cc(Cc2n[nH]c(=O)c3ccccc23)ccc1F)N1CCN(C(=O)C2CC2)CC1 [Olaparib] (partner 8 µM)
Outline: as §1

[1] = compound: Cc1ccc2nc(NCCN)c3ncc(C)n3c2c1 + CS(=O)(=O)CCNCc1ccc(-c2ccc3ncnc(Nc4ccc(OCc5cccc(F)c5)c(Cl)c4)c3c2)o1 [Lapatinib] (partner 2 µM)
Outline: as §1

[2] = compound: Cc1ccc2nc(NCCN)c3ncc(C)n3c2c1 + COc1cc2c(Oc3ccc(NC(=O)C4(C(=O)Nc5ccc(F)cc5)CC4)cc3F)ccnc2cc1OCCCN1CCOCC1 [Foretinib] (partner 0.25 µM)
Outline: as §1

In the case of UMC-11, the relative viability (Salubrinal + Dasatinib; first compound 0.08 µM) is reported as 0.654, the relative viability (Salubrinal + Dasatinib; first compound 0.253 µM) is reported as 0.306 and the relative viability (Salubrinal + Dasatinib; first compound 0.8 µM) is reported as 0.621. The relative viability (Salubrinal + Dasatinib; first compound 2.53 µM) was 0.458, the relative viability (Salubrinal + Dasatinib; first compound 8 µM) was 0.471 and the relative viability (Salubrinal + Olaparib; first compound 0.08 µM) was 0.355. The relative viability (Salubrinal + Olaparib; first compound 0.253 µM) was 0.368, the relative viability (Salubrinal + Olaparib; first compound 0.8 µM) was 0.386 and the relative viability (Salubrinal + Olaparib; first compound 2.53 µM) was 0.337. For the same cell line, the relative viability (Salubrinal + Olaparib; first compound 8 µM) was 0.393, the relative viability ([1]; first compound 0.04 µM) was 1.03 and the relative viability ([1]; first compound 0.1265 µM) was 1.04. The relative viability ([1]; first compound 0.4 µM) was 0.877, the relative viability ([1]; first compound 1.265 µM) was 0.898 and the relative viability ([1]; first compound 4 µM) was 0.91. For the same cell line, the relative viability ([2]; first compound 0.04 µM) was 1.02, the relative viability ([2]; first compound 0.1265 µM) was 0.999 and the relative viability ([2]; first compound 0.4 µM) was 1.02. The relative viability ([2]; first compound 1.265 µM) was 1.01 and the relative viability ([2]; first compound 4 µM) was 0.945.
